# Measurements reported in patent US20110318397A1, “METHOD FOR PREPARING HIGH PURITY GINSENOSIDE RD USING LACTOBACILLUS CASEI AND COSMETIC COMPOSITION FOR ANTI-WRINKLE COMPRISING THE HIGH PURITY GINSENOSIDE RD” (priority 2010, published 2011).
# Like-named read-outs stand apart in the source and are kept apart here.
# Columns and labels:
# [1] = tested on: Human fibroblasts (WI-38); assay: Collagen synthesis, procollagen type-I C-peptide kit; assay type: cell-based; settings: WI-38 fibroblasts, 24 h; for collagen production as compared to the control (sample-untreated cells): 1×10^−4% (w/v) or lower
# Description: Human fibroblasts (WI-38) that had been stored at −80° C. or in liquid nitrogen were used. The cells were uniformly placed on a 96-well plate, with 2.0×10^4 cells/well.
# After culturing in MEM (FBS 5%) for 24 hours, the medium was replaced with a fresh serum-free medium and the cells were treated with gradually diluted sample. […] After treatment with the sample, the cells were further cultured for 24 hours on a 96-well plate. Then, the quantity of collagen was measured using a collagen measurement kit (Procollagen type-I C-peptide MK101, Takara).
# [2] = tested on: human fibroblasts
# Description: MTT [3-(4,5-dimethylthiazol-2-yl)-2,5-diphenyltetrazolium bromide, Sigma M5655] assay was carried out to test the effect of the sample on proliferation of human fibroblasts.
# The fibroblasts that had been stored at −80° C. or in liquid nitrogen were used. The cells were uniformly placed on a 96-well plate, with 2.0×10^4 cells/well. After culturing in MEM (FBS 5%) for 24 hours, the medium was replaced with a fresh serum-free medium and the cells were treated with gradually diluted sample. The samples were ginsenoside Rd and retinol. After treatment with the sample, the cells were further cultured for 24 hours on a 96-well plate. Subsequently, after adding 10 μL of MTT solution (5 mg/mL) to each well, the cells were cultured for 4 hours. After removing the medium and adding 100 μL of dimethyl sulfoxide to each well followed by shaking for 10 minutes, absorbance was measured at 540 nm using an ELISA reader.
smiles,measurement,setting,value
"CC1=C(/C=C/C(C)=C/C=C/C(C)=C/CO)C(C)(C)CCC1 [Retinol, retinol, reference compound]",maximum collagen production,[1]; at 1×10^−2 (w/v) or lower,30%
same,cell viability,"[2]; human, 24 h",100%
"CC(C)=CCC[C@](C)(O)[C@H]1CC[C@]2(C)[C@@H]1[C@H](O)C[C@@H]1[C@@]3(C)CC[C@H](O)C(C)(C)[C@@H]3[C@@H](O[C@@H]3O[C@H](CO)[C@@H](O)[C@H](O)[C@H]3O[C@@H]3O[C@@H](C)[C@H](O)[C@@H](O)[C@H]3O)C[C@]12C [Rg2, ginsenoside Rg2]",collagen production as compared to the control (sample-untreated cells),[1],remarkably decreased collagen production
CC(C)=CCC[C@](C)(O[C@@H]1O[C@H](CO)[C@@H](O)[C@H](O)[C@H]1O)[C@H]1CC[C@]2(C)[C@@H]1[C@H](O)C[C@@H]1[C@@]3(C)CC[C@H](O[C@@H]4O[C@H](CO)[C@@H](O)[C@H](O)[C@H]4O[C@@H]4O[C@H](CO)[C@@H](O)[C@H](O)[C@H]4O)C(C)(C)[C@@H]3CC[C@]12C [ginsenoside Rd],collagen production as compared to the control (sample-untreated cells),[1],slightly decreased collagen production
same,cell viability,[2],100%
same,cytotoxicity,[2],no cytotoxicity
